Assay results published in patent publication US7612061B2, “Piperazine compounds” (Les Laboratoires Servier, priority 2005, dated 2009).
Counter-ions that a name gives are not always drawn.

Experiments:
[1] = target: T1, serotonin (5-HTT) reuptake site (Rattus norvegicus, UniProt P31652); experiment: Affinity for serotonin reuptake sites in the rat ([3H]-citalopram competition); format: binding; settings: rat frontal cortex membranes, 0.7 nM [3H]-citalopram, 2 hours at 25° C.; pKi=-log Ki (Cheng-Prusoff); read-out: pKi r5-HTT (converted)
T1 construct: on rat frontal cortex membranes; from tissue; host or cells: rat frontal cortex membranes
Description: The affinity of the compounds for the serotonin (5-HTT) reuptake site is evaluated by competition experiments with [^3H]-citalopram on rat frontal cortex membranes. The cortices are homogenised using a Polytron in 40 volumes (weight/volume) of cold Tris-HCl (50 mM, pH 7.4) incubation buffer containing 120 mM NaCl and 5 mM KCl and are then centrifuged for a first time. The sediment is resuspended in the same buffer, incubated for 10 minutes at 37° C. and then re-centrifuged. The membranes are washed a further two times and the sediment is then resuspended in an appropriate volume of incubation buffer. The membranes are then incubated for 2 hours at 25° C. with the compound under test in the presence of 0.7 nM [^3H]-citalopram. Non-specific binding is determined with 10 μM fluoxetine. At the end of the incubation period, the samples are filtered through Unifilter GF/B type filters pretreated with PEI (0.5%) and washed several times with the incubation buffer. The radioactivity retained on the filters is counted after addition of scintillation liquid, with the aid of a scintillation counter. The isotherms obtained are analysed by non-linear regression to determine the IC50 values, which are converted into Ki using the Cheng-Prusoff equation: Ki=IC50/(1+L/kD) wherein L represents the concentration of radioligand and kD is the dissociation constant of [^3H]-citalopram on the serotonin reuptake site (0.7 nM). The results are expressed as pKi=−log Ki.

human NK1 receptors = target: T2, human NK1 receptors (Homo sapiens, UniProt P25103); experiment: hNK1 binding ([3H]-Substance P competition on IM9 human lymphoblast cells); settings: IM9 human lymphoblast cells endogenously expressing NK1 receptors, 1.5 nM [3H]-Substance P, 90 minutes at ambient temperature; pKi=-log Ki (Cheng-Prusoff)
T2 construct: IM9 human lymphoblast cells endogenously expressing NK1 receptors; endogenous in cells; host or cells: IM9 human lymphoblast cells (whole-cell preparation)
Description: The affinity of compounds of the invention was determined by competition experiments in the presence of [^3H]-Substance P (Sar-9, MetO2-11,2-propyl-3,4-3H). IM9 human lymphoblast cells endogenously expressing NK1 receptors are centrifuged and taken up in the incubation buffer containing 50 mM TRIS, 150 mM NaCl, 4 mM CaCl2, protease inhibitors at 1/100^e (Cocktail SIGMA P8340) and 0.2% BSA. The volume of incubation buffer is determined so as to obtain a concentration of 5×10^6 cells/ml. The cell preparation is then incubated together with 1.5 nM [^3H]-Substance P and the compound under test for 90 minutes at ambient temperature. Non-specific binding is determined in the presence of 1 μM GR 205171.
At the end of the incubation period, the samples are filtered through Unifilter GF/B type filters pretreated with PEI (0.1%) and washed several times with the filtration buffer (50 mM TRIS, 150 mM NaCl, 4 mM CaCl2). The radioactivity retained on the filters is measured by counting after addition of scintillation liquid to the filters. The counts are analysed by non-linear regression, allowing the isotherms to be plotted and the IC50 values to be determined. The latter are then converted into inhibition constants (Ki) by means of the Cheng-Prusoff equation: Ki=IC50/(1+L/KD) wherein L is the concentration of [^3H]-Substance P and KD is the dissociation constant of [^3H]-Substance P for human NK1 receptors (0.53 nM). The results are expressed as pKi(−log Ki).

T1 sequence (P31652 whole entry): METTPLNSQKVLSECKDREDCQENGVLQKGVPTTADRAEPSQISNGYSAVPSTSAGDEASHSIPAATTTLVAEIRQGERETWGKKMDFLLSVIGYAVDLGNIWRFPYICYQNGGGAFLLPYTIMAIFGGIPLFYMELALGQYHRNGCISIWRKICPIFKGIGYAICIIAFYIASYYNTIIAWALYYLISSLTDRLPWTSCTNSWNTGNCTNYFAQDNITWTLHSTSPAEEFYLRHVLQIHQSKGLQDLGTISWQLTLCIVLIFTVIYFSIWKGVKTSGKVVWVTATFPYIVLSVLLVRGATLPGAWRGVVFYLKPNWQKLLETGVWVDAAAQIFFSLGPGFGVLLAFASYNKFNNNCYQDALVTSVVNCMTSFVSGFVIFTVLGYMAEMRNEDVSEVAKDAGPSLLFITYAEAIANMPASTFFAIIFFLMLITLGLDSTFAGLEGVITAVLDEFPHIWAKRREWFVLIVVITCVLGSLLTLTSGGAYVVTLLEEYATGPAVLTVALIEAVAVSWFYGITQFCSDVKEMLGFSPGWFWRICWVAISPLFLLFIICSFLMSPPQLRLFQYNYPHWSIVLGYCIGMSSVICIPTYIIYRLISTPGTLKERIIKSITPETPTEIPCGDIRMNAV
T2 sequence (P25103 whole entry): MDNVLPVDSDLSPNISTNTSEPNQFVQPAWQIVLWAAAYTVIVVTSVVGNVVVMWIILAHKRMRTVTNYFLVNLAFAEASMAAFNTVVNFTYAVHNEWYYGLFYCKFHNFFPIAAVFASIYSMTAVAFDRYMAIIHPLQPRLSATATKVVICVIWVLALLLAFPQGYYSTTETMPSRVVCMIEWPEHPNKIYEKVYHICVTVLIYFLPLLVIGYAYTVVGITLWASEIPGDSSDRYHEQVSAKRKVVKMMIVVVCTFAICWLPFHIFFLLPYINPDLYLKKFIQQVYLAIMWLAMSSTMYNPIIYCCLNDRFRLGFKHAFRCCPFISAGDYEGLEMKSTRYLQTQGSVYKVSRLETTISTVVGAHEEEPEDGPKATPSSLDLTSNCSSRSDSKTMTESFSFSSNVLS

Ki [1] [µM] | Ki (human NK1 receptors) [µM] | Compound
0.00447 | 0.145 | Brc1cc(Br)cc(CO[C@@H]2Cc3ccccc3[C@H]2N2CCNCC2)c1 (racemic) [Example 1, trans-1-{2-[(3,5-Dibromobenzyl)oxy]-2,3-dihydro-1H-inden-1-yl}-piperazine dihydrochloride]
0.0794 | 0.00562 | Brc1cc(Br)cc(CO[C@@H]2COc3ccccc3[C@H]2N2CCNCC2)c1 (racemic) [Example 4, trans-1-{3-[(3,5-Dibromobenzyl)oxy]-3,4-dihydro-2H-chromen-4-yl}piperazine dihydrochloride]
 | 0.0331 | Brc1cc(Br)cc(CO[C@@H]2CCc3ccccc3[C@H]2N2CCNCC2)c1 (racemic) [Example 15, trans-1-{2-[(3,5-Dibromobenzyl)oxy]-1,2,3,4-tetrahydronaphth-1-yl}piperazine dihydrochloride]
 | 0.00724 | Brc1cc(Br)cc(CO[C@@H]2CCCc3ccccc3[C@H]2N2CCNCC2)c1 (relative stereo) [Example 7, trans-1-{6-[(3,5-Dibromobenzyl)oxy]-6,7,8,9-tetrahydro-5H-benzo-[7]annulen-5-yl}piperazine dihydrochloride]
 | 0.0288 | Brc1cc(Br)cc(CO[C@@H]2CCOc3ccccc3[C@H]2N2CCNCC2)c1 (relative stereo) [Example 8, trans-1-{4-[(3,5-Dibromobenzyl)oxy]-2,3,4,5-tetrahydro-1-benzoxepin-5-yl}piperazine dihydrochloride]
 | 0.011 | NC1CCN([C@@H]2c3ccccc3OC[C@H]2OCc2cc(Br)cc(Br)c2)CC1 (relative stereo) [Example 9, trans-1-{3-[(3,5-Dibromobenzyl)oxy]-3,4-dihydro-2H-chromen-4-yl}piperidin-4-amine dihydrochloride]
 | 0.251 | COc1ccc2c(c1)CC[C@@H](OCc1cc(Br)cc(Br)c1)[C@@H]2N1CCNCC1 (relative stereo) [Example 13, trans-1-{2-[(3,5-Dibromobenzyl)oxy]-6-methoxy-1,2,3,4-tetrahydro-naphth-1-yl}piperazine dihydrochloride]
 | 0.141 | FC(F)(F)c1cc(CO[C@@H]2Cc3ccccc3[C@H]2N2CCNCC2)cc(C(F)(F)F)c1 (relative stereo) [Example 40, trans-1-(2-{[3,5-Bis(trifluoromethyl)benzyl]oxy}-2,3-dihydro-1H-inden-1-yl)piperazine dihydrochloride]
0.0195 |  | COc1ccc2c(c1)[C@@H](N1CCNCC1)[C@H](OCc1cc(Cl)cc(Cl)c1)C2 (relative stereo) [Example 42, trans-1-{2-[(3,5-Dichlorobenzyl)oxy]-6-methoxy-2,3-dihydro-1H-inden-1-yl}piperazine dihydrochloride]
0.049 |  | Clc1cc(Cl)cc(CO[C@@H]2COc3ccccc3[C@H]2N2CCNCC2)c1 (relative stereo) [Example 44, trans-1-{3-[(3,5-Dichlorobenzyl)oxy]-3,4-dihydro-2H-chromen-4-yl}-piperazine dihydrochloride]
0.0355 |  | Fc1cc(Cl)cc(CO[C@@H]2COc3ccccc3[C@H]2N2CCNCC2)c1 (relative stereo) [Example 47, trans-1-{3-(3-Chloro-5-fluorobenzyloxy)-3,4-dihydro-2H-chromen-4-yl}piperazine dihydrochloride]
 | 0.0398 | Brc1cc(Br)cc(COC2CCc3ccccc3C2N2CCCNCC2)c1 (single isomer, unassigned; (-)) [Example 19, (−) isomer of trans-1-{2-[(3,5-dibromobenzyl)oxy]-1,2,3,4-tetra-hydronaphth-1-yl}-1,4-diazepane dihydrochloride]
0.0123 |  | Brc1cc(Br)cc(CO[C@@H]2Cc3ccccc3[C@@H]2N2CCNCC2)c1 [Example 21, 1-{(1S,2R)-2-[(3,5-Dibromobenzyl)oxy]-2,3-dihydro-1H-inden-1-yl}-piperazine dihydrochloride]
0.00107 |  | Fc1cc(F)cc(CO[C@@H]2Cc3ccccc3[C@@H]2N2CCNCC2)c1 [Example 36, 1-[(1S,2R)-2-[(3,5-Difluorobenzyl)oxy]-2,3-dihydro-1H-inden-1-yl]-piperazine dihydrochloride]
0.00186 |  | Cc1cc(C)cc(CO[C@@H]2Cc3ccccc3[C@@H]2N2CCNCC2)c1 [Example 38, 1-[(1S,2R)-2-[(3,5-Dimethylbenzyl)oxy]-2,3-dihydro-1H-inden-1-yl]-piperazine dihydrochloride]
